Test results reported in ChEMBL document CHEMBL1201862, “PubChem BioAssay data set” (2004).
Activity calls are given as the source filed them.

Key:
Vero [1] = assay: cells; assay type: functional, cell-based; conditions: Chlorocebus sabaeus
Vero [2] = assay: cells; assay type: functional; conditions: Chlorocebus sabaeus
CAAX prenyl protease 2 [3] = molecular target: T1, CAAX prenyl protease 2 (Homo sapiens, UniProt Q9Y256); assay: human Rce1 protease inhibitors, dose response, biochemical, yeast membranes, quenched-peptide fluorescence, cherry-pick (AID 588849)
T1 sequence (Q9Y256 whole entry): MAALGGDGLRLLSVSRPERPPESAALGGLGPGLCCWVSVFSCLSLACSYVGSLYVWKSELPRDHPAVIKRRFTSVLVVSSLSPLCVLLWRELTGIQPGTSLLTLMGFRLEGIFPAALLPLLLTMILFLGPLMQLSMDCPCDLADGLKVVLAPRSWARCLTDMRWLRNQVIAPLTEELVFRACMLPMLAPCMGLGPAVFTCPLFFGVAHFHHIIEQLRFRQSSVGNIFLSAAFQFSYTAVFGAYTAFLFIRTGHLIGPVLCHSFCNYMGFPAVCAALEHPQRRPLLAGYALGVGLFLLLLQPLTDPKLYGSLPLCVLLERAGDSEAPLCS

CAAX prenyl protease 2 [4] = molecular target: T2, CAAX prenyl protease 2 (Saccharomyces cerevisiae S288c, UniProt Q03530); assay type: biochemical
T2 sequence (Q03530 whole entry): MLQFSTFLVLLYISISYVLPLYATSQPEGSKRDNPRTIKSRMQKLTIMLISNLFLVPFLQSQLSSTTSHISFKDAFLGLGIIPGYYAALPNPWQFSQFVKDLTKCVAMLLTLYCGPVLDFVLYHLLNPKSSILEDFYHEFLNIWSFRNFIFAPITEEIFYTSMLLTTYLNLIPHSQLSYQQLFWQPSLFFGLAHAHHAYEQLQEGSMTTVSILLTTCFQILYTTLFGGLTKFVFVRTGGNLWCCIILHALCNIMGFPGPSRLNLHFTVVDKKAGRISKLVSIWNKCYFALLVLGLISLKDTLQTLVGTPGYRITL

[5] = Shn3 3'UTR reporter inhibitors, dose response, cell-based, Clone20 osteoblasts, firefly luciferase, cherry-picked (AID 624132); assay type: functional;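 also: firefly luciferase luminescence from reporter carrying the Shn3 3'UTR in osteoblasts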
Protein Wnt-3a = Protein Wnt-3a (Mus musculus, UniProt P27467); assay: Wnt3a-driven reporter signaling inhibition, dose response, selectivity assay for Gli-SUFU antagonist project, Wnt-LIGHT cells, luminescence (AID 651570); assay type: functional; conditions: read-out: IC50_Mean;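 also: Wnt-LIGHT reporter cells stimulated with conditioned medium from Wnt3a-producing cells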
Protein Wnt-3a, sequence (P27467 whole entry): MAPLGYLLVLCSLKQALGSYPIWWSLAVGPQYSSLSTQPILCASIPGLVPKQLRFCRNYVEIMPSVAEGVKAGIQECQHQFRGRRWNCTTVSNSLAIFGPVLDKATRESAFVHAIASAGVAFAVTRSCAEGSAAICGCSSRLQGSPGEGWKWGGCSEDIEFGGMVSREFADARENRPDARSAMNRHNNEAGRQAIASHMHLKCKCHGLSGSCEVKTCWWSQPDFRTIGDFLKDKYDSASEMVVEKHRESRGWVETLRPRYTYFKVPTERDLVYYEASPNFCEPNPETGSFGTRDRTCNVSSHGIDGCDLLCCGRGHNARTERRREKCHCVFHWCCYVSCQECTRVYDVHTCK

[6] = control 3'UTR Renilla luciferase suppression, dose response, counter-screen for Shn3 inhibitor project, cell-based, Clone20-Shn3RL, cherry-picked (AID 624133); assay type: functional
[7] = insulin promoter down-regulators in MIN6 cells, imaging, high-content screening, mouse beta cells (AID 1628); assay type: functional
[8] = cytotoxicity in MIN6 insulinoma cells, dose response, cytotoxicity control, cell-based, mouse insulinoma (AID 2122); assay type: functional;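 also: confirmatory high-throughput counterscreen run to flag cytotoxic compounds; mouse MIN-6 beta cells carrying an insulin promoter eGFP reporter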
[9] = molecular target: Glucose-6-phosphate 1-dehydrogenase (Homo sapiens, UniProt P11413); assay: human G6PD enzyme inhibitors, dose response, selectivity assay for P. falciparum G6PD inhibitor project, biochemical, fluorescence (AID 504792); assay type: functional
Glucose-6-phosphate 1-dehydrogenase, sequence (P11413 whole entry): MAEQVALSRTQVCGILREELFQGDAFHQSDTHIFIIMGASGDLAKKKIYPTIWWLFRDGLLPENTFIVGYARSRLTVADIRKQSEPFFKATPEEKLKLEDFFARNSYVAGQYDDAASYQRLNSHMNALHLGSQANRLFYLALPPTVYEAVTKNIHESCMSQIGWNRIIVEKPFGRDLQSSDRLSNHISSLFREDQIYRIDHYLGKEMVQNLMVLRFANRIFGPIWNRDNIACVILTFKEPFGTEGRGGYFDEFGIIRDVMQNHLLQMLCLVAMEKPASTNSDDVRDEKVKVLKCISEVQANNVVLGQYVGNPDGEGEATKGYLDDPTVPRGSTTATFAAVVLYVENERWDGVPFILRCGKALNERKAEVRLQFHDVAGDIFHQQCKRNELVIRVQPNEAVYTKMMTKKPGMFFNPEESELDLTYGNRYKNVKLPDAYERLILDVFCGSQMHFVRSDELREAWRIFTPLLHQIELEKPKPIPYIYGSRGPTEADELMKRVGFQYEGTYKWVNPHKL

Protein skinhead-1 = molecular target: T3, Protein skinhead-1 (Caenorhabditis elegans, UniProt P34707); assay type: functional
T3 sequence (P34707 whole entry): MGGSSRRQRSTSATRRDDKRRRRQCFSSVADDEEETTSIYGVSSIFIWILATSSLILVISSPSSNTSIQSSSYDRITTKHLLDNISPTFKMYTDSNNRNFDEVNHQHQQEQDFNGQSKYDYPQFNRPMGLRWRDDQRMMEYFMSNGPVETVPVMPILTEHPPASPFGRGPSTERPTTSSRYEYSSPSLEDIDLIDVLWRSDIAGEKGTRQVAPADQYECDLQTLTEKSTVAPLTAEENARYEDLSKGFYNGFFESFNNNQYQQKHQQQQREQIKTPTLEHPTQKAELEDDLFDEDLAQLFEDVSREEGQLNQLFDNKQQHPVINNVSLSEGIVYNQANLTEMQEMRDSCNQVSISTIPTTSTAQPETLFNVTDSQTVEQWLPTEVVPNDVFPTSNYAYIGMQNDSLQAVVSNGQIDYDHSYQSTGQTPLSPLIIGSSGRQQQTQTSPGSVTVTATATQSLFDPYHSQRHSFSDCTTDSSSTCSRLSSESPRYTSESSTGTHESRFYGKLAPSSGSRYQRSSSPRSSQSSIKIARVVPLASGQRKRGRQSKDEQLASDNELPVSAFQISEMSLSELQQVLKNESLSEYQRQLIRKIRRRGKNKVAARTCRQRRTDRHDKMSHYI

[10] = HEp-2 cell cytotoxicity, dose response, cytotoxicity control for RSV inhibitor project, HTS (AID 2410); assay type: functional; conditions: human respiratory syncytial virus
Leucine aminopeptidase = molecular target: T4, Leucine aminopeptidase (Plasmodium falciparum 3D7, UniProt Q8IL11); assay: P. falciparum M17LAP inhibitors, primary screen, biochemical, fluorogenic H-Leu-NHMec substrate, 1536-well (AID 1619); assay type: functional
T4 sequence (Q8IL11 whole entry): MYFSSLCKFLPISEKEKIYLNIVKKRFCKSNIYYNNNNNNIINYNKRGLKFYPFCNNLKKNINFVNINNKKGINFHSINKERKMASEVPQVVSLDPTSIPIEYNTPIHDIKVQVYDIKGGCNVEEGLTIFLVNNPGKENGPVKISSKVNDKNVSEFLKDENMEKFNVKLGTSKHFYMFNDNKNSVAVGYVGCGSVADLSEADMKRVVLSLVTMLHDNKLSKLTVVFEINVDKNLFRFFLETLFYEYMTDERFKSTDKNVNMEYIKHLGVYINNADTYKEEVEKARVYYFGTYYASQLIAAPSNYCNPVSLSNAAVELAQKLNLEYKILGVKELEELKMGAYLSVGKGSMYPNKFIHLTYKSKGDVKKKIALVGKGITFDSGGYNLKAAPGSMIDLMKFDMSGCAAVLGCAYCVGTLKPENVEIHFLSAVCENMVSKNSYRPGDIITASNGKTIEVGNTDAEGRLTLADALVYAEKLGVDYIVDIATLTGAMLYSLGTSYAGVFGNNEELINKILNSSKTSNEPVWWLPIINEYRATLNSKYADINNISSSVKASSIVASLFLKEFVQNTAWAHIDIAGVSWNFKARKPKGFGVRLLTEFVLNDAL

[11] = molecular target: FAD-linked sulfhydryl oxidase ALR (Homo sapiens, UniProt P55789); assay: inhibitors of human ALR sulfhydryl oxidase, dose response, biochemical, H2O2 detection, luminescence, cherry-pick (AID 493248)
FAD-linked sulfhydryl oxidase ALR, sequence (P55789 whole entry): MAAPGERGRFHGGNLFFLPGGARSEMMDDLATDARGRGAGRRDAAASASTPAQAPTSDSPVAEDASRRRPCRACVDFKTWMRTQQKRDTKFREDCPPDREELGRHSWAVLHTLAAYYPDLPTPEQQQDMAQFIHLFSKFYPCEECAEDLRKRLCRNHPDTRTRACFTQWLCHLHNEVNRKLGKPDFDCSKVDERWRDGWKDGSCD

[12] = molecular target: Intestinal-type alkaline phosphatase (Mus musculus, UniProt P24822); assay: PubChem AID 488785; assay type: functional
Intestinal-type alkaline phosphatase (Mus musculus, UniProt P24822), sequence (P24822 whole entry): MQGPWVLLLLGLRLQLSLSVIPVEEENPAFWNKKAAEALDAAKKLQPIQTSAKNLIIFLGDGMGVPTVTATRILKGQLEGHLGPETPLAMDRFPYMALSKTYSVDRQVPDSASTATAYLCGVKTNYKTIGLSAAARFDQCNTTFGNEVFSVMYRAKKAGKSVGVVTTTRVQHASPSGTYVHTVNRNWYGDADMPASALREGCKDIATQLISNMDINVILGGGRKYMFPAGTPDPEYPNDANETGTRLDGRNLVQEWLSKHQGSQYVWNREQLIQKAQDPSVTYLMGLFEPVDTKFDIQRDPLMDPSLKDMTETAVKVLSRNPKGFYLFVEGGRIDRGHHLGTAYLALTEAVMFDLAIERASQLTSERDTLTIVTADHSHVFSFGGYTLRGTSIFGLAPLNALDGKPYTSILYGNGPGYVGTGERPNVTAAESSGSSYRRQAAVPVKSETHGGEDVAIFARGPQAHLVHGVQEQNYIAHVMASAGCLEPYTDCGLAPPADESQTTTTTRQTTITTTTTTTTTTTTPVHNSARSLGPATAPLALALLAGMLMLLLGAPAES

[13] = molecular target: Intestinal-type alkaline phosphatase (Homo sapiens, UniProt P09923); assay: inhibition of human intestinal alkaline phosphatase – biochemical, dose response (AID 488876); assay type: functional
Intestinal-type alkaline phosphatase (Homo sapiens, UniProt P09923), sequence (P09923 whole entry): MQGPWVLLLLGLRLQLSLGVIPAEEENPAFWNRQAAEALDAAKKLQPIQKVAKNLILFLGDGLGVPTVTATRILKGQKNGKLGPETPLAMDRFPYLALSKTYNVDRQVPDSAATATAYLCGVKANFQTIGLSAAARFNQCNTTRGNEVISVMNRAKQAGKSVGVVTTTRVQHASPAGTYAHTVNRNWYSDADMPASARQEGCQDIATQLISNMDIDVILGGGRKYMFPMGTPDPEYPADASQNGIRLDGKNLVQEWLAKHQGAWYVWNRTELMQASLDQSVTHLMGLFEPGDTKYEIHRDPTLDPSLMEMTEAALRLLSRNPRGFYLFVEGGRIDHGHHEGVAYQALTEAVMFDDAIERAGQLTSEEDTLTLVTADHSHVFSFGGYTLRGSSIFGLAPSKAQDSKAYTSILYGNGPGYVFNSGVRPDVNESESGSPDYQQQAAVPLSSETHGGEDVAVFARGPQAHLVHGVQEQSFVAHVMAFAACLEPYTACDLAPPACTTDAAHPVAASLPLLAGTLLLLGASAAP

[14] = molecular target: T5, Alkaline phosphatase, tissue-nonspecific isozyme (Homo sapiens, UniProt P05186); assay: TNAP enzyme inhibition by screening hits, dose response, selectivity assay for mouse IAP inhibitor project, biochemical, human TNAP, uHTS hits (AID 488906); assay type: functional
T5 sequence (P05186 whole entry): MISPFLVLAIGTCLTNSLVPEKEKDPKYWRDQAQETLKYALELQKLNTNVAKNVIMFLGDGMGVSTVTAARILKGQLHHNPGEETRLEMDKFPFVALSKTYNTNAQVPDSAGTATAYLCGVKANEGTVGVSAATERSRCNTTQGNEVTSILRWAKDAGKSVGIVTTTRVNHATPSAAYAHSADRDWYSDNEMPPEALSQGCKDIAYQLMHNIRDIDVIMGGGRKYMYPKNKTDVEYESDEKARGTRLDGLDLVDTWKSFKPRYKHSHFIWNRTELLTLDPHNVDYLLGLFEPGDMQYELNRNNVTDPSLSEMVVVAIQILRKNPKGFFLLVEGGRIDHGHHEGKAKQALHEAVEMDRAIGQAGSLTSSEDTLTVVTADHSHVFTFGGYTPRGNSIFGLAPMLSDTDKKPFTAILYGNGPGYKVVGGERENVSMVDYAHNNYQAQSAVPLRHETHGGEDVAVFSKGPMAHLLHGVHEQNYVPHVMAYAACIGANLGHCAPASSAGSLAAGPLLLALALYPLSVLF

[15] = Luminescence Cell-Based Dose Retest to Confirm Inhibitors of Cancer Stem Cells. [Related pubchem assays (depositor defined):AID2717, AID2721]; assay type: functional; conditions: Homo sapiens
cells = assay type: functional

CN1CCN(CCC=C2c3ccccc3Sc3ccc(S(=O)(=O)N(C)C)cc32)CC1
IC50 (Vero [1]): > 25 µM (active) | CC50 (Vero [2]): 19.7 µM (active)

COC(=O)c1nc(N)sc1-c1ccc(Cl)c(Cl)c1
AC50 (CAAX prenyl protease 2 [3]): 11.6 µM (active) | AC50 (CAAX prenyl protease 2 [4]): 21.3 µM (active)

O=C(Cn1cc(C(=O)c2ccco2)c2ccccc21)Nc1ccccc1F
AC50 [5]: 2.6 µM (active) | IC50 (Protein Wnt-3a): 4.08 µM (active) | AC50 [6]: 4.67 µM (active) | IC50 [7]: 1.79 µM (active) | IC50 [8]: 1.33 µM (active)

COc1cc(CN2CCN(CCCc3ccccc3)C(CCO)C2)cc(OC)c1O (stereo unspecified)
IC50 [9]: 58.7 µM (inactive)

COc1ccc(Nc2nnc(SCC(=O)/C=C3/N(C)c4ccccc4C3(C)C)s2)cc1
IC50 (Protein skinhead-1): > 100 µM (inactive) | CC50 [10]: 7.33 µM (active) | IC50 [7]: 1.64 µM (active) | IC50 (Leucine aminopeptidase): 21.1 µM (active) | IC50 [8]: 1.72 µM (active)

Cc1cc(O)c(Sc2nc[nH]n2)cc1NS(=O)(=O)c1ccc(Cl)cc1
AC50 [11]: 1.52 µM (active) | IC50 [12]: 5.84 µM (active) | IC50 [13]: > 100 µM (inactive) | IC50 [14]: 92.6 µM (active)

Cc1ccc(/C=C2\SC(=S)N(CCC(=O)N3CCOCC3)C2=O)cc1
IC50 (Vero [1]): > 25 µM (active) | CC50 (Vero [2]): 14.5 µM (active)

O=C(NC1CCCCC1)c1ccc2ccccc2c1O
IC50 (Vero [1]): 11.3 µM (active)

C#CCOCCOCCOCCNc1nc(N2CCN(C(=O)CCCCCCCCCCNC(=O)Cn3cc(C[C@@H](C)O)nn3)CC2)nc(N2CCN(C(=O)CCCCCCCCCCNC(=O)[C@@H](CCSC)n3cc(CCO)nn3)CC2)n1
IC50 [12]: 27.6 µM (active) | IC50 [13]: 36.3 µM (active) | IC50 [14]: 27.3 µM (active)

C#CCOCCOCCOCCNc1nc(N2CCN(C(=O)CCCCCCCCCCNC(=O)Cn3cc(C[C@@H](C)O)nn3)CC2)nc(N2CCN(C(=O)CCCCCCCCCCNC(=O)[C@H](CCCCN)n3cc(C[C@@H](C)CC)nn3)CC2)n1
AC50 [15]: 7.11 µM (active) | IC50 [12]: 4.71 µM (active) | IC50 [13]: > 100 µM (inactive) | IC50 [14]: 95.5 µM (active)

Cc1nnc(N/N=C/c2ccc(-c3ccccc3F)o2)n1N
IC50 (cells): 22.3 µM (active) | IC50 [9]: > 80 µM (inactive)
